Data as given in patent publication US9572760B2, “Uses of compounds and mixtures from Antrodia cinnamomea mycelia” (Simpson Biotech Co., Ltd., priority 2013, dated 2017).

Assays:
α-SMA and TGF-β1 = experiment: Western blot of α-SMA and TGF-β1 in rabbit ear scar tissue; assay type: in vivo, New Zealand white rabbits; settings: 1% w/v topical; for level of TGF-β1 expression (Western blot): day 14, compared with the control groups; for levels of α-SMA expression (Western blot): relative to the control group
Method: The rabbit ear model of hypertrophic scarring was established. In brief, 12 New Zealand white rabbits, weighing 2.5 to 3.0 kg, were prepared for wounding under sterile conditions. Four 1 cm full thickness circular wounds were created down to the cartilage on the ventral side of each ear using a 1 cm punch biopsy. The perichondrial membrane was then dissected off the cartilage using a surgical blade. The test agents including compound B, C and ACM ethanol extract were applied to the wounds of the experimental group ([…] to each wound) every day in concentrations of 1% w/v for 14 days, while the control group received equal amounts of 1% w/v saline.
The scar tissues were lysed; then the protein samples were denatured and then separated on 10.6% polyacrylamide gels, and transferred to the polyvinylidene difluoride membrane. The membranes were incubated in TBS containing 5% nonfat milk and 0.05% Tween-20 for 1 h at room temperature and blotted with primary antibodies (dilution 1:300) at 4° C. overnight. The membranes were washed with TBST for 15 min the next day. Subsequently, the membranes were incubated with horseradish peroxidase-conjugated affinipure goat anti-rabbit antibody (dilution 1:3000) for 1 h at room temperature and washed with TBST for 21 min. The membranes were then detected using ECL. The western blot results were further analyzed with Quantity One software 4.1.1 (Bio-Rad, Hercules, Calif.)

tyrosinase = molecular target: T1, tyrosinase (Mus musculus, UniProt P11344); experiment: Cellular tyrosinase activity assay (L-DOPA oxidation) in B16F10 cells exposed to UV; assay type: cell-based, murine; settings: UV alone 52.55±4.36% increase over non-UV control (3.0±0.5 U/mg protein)
T1 construct: endogenous in cells; host or cells: B16F10 murine melanoma cells (ATCC), total cell lysate
T1 sequence (P11344 19-533): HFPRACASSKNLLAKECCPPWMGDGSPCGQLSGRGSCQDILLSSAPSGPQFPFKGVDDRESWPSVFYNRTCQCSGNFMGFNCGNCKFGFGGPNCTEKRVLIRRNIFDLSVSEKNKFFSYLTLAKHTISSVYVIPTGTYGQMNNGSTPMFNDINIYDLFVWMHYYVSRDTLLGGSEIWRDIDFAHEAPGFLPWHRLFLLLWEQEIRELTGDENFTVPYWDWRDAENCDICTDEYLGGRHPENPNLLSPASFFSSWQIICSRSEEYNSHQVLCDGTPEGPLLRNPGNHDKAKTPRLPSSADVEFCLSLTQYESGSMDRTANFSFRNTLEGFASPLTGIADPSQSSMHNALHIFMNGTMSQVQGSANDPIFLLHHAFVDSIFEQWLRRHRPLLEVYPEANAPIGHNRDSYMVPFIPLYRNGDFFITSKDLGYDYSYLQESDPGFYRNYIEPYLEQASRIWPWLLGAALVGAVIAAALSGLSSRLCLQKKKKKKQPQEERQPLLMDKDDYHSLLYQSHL
Description: The dermal fibroblast cell line CG1639 was obtained from the BCRC (Bioresource Collection and Research Center) and cultured in Dulbecco's modified Eagle media (DMEM, Gibco by Invitrogen) with 1% antibiotic antimycotic (Gibco by Invitrogen) and 15% fetal bovine serum (Gibco by Invitrogen). The fetal rat skin keratinocyte, FRSK cell line was obtained from the Japan HSRRB (Health Science Research Resources Bank) and cultured in Eagle's minimal essential media (MEM, Gibco by Invitrogen) supplemented with 10% fetal bovine serum (FBS) (Gibco by Invitrogen) and 1% antibiotic antimycotic (Gibco by Invitrogen). B16F10 cells, a murine melanoma cell line, were purchased from American Type Culture Collection (ATCC, Rockville, Md., USA) and was cultured in Eagle's Minimum Essential Medium (MEM; Sigma, St. Louis, Mo.) supplemented with 10% fetal bovine serum (FBS; HyClone Lab. Inc., Logan, Utah), 0.02% antibiotic-antimycotic liquid (penicillin, 10 000 U mL^−1; streptomycin, 10 000 μg mL^−1 and amphotericin B, 25 μg mL^−1; Invitrogen, Carlsbad, Calif.).
To investigate the induction of melanogenesis and the oxidative stress by direct UV irradiation, melanoma cells and keratocytes were irradiated with 8 J cm^−2 of UVA (FL15BLB, 352 nm, 15 W; Toshiba, Tokyo, Japan) and 10 mJ cm^−2 of UVB (G15T8E, 306 nm, 15 W; Sankyo Denki, Tokyo, Japan) in a HANKS' balanced salt solution (Sigma). The UV intensity was measured by using a Model UVX Digital Radiometer (UVP Inc., Upland, Calif.).
B16F10 and FRSK cells were exposed to Hepasim compounds A-D by two different concentrations (3 or 10 μM) for 72 hrs prior to UVA irradiation. DMEM was replaced with phosphate buffered saline (PBS) to avoid generation of medium-derived toxic photoproducts prior to UV irradiation. Cells were collected 24 hrs after UVA irradiation and assayed. For preparation of cell lysate, the harvested cells were pelleted by centrifugation and lysed in lysis buffer containing 50 mM Tris-HCl, 10 mM ethylene diaminetetraacetic acid (EDTA), 1% (v/v) Tri-ton X-100, phenylmethylsulfonyl fluoride (PMSF) (100 mg/ml) and pepstatin A (1 mg/ml) in DMSO and leupeptin (1 mg/ml) in H2O, pH 6.8. The cells were centrifuged at 10,000 rpm for 10 min and the total cell lysate was collected and stored at −80° C.
The rate of L-DOPA oxidation was measured to assess cellular tyrosinase activity in B16F10 cells exposed to UV. The assay was performed as below described, 20 mM L-DOPA used as the substrates was added to each lysate in a 96-well plate and absorbance of dopachrome formation was measured spectrophotometrically at 475 nm every 10 min for 1 h at 37° C. by a spectrophotometer. The tyrosinase activity was calculated by comparison to a standard curve using tyrosinase (2034 U/mg) and was expressed as unit/mg protein. The data are expressed as a percentage of the tyrosinase activity (unit/mg protein) of non-irradiated and untreated control cells (100%).

| SMILES | level of TGF-β1 expression (Western blot) (α-SMA and TGF-β1) | levels of α-SMA expression (Western blot) (α-SMA and TGF-β1) | tyrosinase activity in UV-irradiated B16F10 cells (tyrosinase; 3 μM) [%] | tyrosinase activity in UV-irradiated B16F10 cells (tyrosinase; 10 μM) [%] |
| --- | --- | --- | --- | --- |
| CC(C)=CCOc1ccc(C2=C(CC(C)C)C(=O)N(O)C2=O)cc1 [Compound C, 3-isobutyl-4-[4-(3-methyl-2-butenyloxy)phenyl]-1H-pyrrol-1-ol-2,5-dione] | significantly decreased | decreased | 48.55±3.7 | 40.55±3.9 |
| CC(C)=CCOc1ccc(C2=C(CC(C)C)C(=O)NC2=O)cc1 [Compound B, 3-isobutyl-4-[4-(3-methyl-2-butenyloxy)phenyl]-1H-pyrrol-2,5-dione] | significantly decreased | decreased | 51.65±4.6 | 42.32±6.7 |
